Results published in ChEMBL document CHEMBL5108013, “Crescent-shaped meta-substituted benzene derivatives as a new class of non-nucleoside ribonuclease A inhibitors” (Bioorg Med Chem, 2022).
Calls of active or inactive are those of the source. The rule behind the calls is not given here.

Experiments:
Ribonuclease pancreatic [1] = molecular target: T1, Ribonuclease pancreatic (Bos taurus, UniProt P61823); test: Competitive inhibition of bovine pancreatic RNase A using 2',3'-cCMP as substrate by Lineweaver-Burk plot analysis
T1 sequence (P61823 whole entry): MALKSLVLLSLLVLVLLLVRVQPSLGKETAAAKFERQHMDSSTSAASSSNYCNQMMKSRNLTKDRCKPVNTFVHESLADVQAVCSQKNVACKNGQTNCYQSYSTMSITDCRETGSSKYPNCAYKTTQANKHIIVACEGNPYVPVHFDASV

[2] = molecular target: T2, Ribonuclease pancreatic (Bos taurus) (UniProt P61823); test: Inhibition of bovine pancreatic RNase A assessed as increase in RNA band intensity using RNA as substrate incubated for 3 hrs followed by RNA addition for 30 mins by ethidium bromide staining based agarose gel electrophoresis; settings: time 210.0 min
T2 sequence (whole entry): T1 sequence (P61823 whole entry)

Ribonuclease pancreatic [3] = molecular target: T1, Ribonuclease pancreatic; test: Inhibition of bovine pancreatic RNase A assessed as reduction in CpG cleavage by spectrophotometric analysis
Ribonuclease pancreatic [4] = molecular target: T1, Ribonuclease pancreatic; test: Non-competitive inhibition of bovine pancreatic RNase A using 2',3'-cCMP as substrate by Lineweaver-Burk plot analysis
Ribonuclease pancreatic [5] = molecular target: T1, Ribonuclease pancreatic; test: Inhibition of bovine pancreatic RNase A using 2',3'-cCMP as substrate by Lineweaver-Burk plot analysis

Row | Ki (Ribonuclease pancreatic [1]) [µM] | inhibition [2] | SMILES | other results
1 | 28 | Active | O=C(O)c1cc(-n2cc(C(=O)O)nn2)cc(-n2cc(C(=O)O)nn2)c1 | –
2 | 12 | Active | O=C(O)c1cc(-n2cc(CS(=O)(=O)O)nn2)cc(-n2cc(CS(=O)(=O)O)nn2)c1 | –
3 | 32 | Active | O=S(=O)(O)Cc1cn(-c2cccc(-n3cc(CS(=O)(=O)O)nn3)c2)nn1 | –
4 | 272 | Active | O=C(O)c1cc(C(=O)N2CCC(C(=O)O)CC2)cc(C(=O)N2CCC(C(=O)O)CC2)c1 | –
5 | 79 | Active | OCc1cn(-c2cccc(-n3cc(CO)nn3)c2)nn1 | –
6 | – | – | O=C(Nc1ccc(Cc2ccc(NC(=O)c3cccc([N+](=O)[O-])c3)c(C(=O)O)c2)cc1C(=O)O)c1cccc([N+](=O)[O-])c1 | Ki (Ribonuclease pancreatic [3]): 21 µM
7 | – | Active | O=C(O)C1CCN(C(=O)c2cccc(C(=O)N3CCC(C(=O)O)CC3)c2)CC1 | Ki (Ribonuclease pancreatic [4]): 617 µM
8 | 44 | Active | O=C(O)c1cc(-n2cc(CO)nn2)cc(-n2cc(CO)nn2)c1 | –
9 | – | – | O=S(=O)(O)CCn1cc(COC[C@@H]2O[C@H](Cn3cc(CS(=O)(=O)O)nn3)[C@@H](O)[C@H]2O)nn1 | Ki (Ribonuclease pancreatic [5]): 29 µM
10 | 60 | Active | O=C(O)c1cn(-c2cccc(-n3cc(C(=O)O)nn3)c2)nn1 | –
11 | – | – | Cc1cn([C@H]2C[C@H](NC(=O)[C@@H](CC(=O)O)NC(=O)[C@H]3O[C@@H](n4cnc5c(N)ncnc54)[C@H](O)[C@@H]3O)[C@@H](CO)O2)c(=O)[nH]c1=O | Ki (Ribonuclease pancreatic [5]): 32 µM
12 | – | – | Cc1cn([C@H]2C[C@H](NC(=O)[C@@H](CC(=O)O)NC(=O)[C@H]3O[C@@H](n4ccc(=O)[nH]c4=O)[C@H](O)[C@@H]3O)[C@@H](CO)O2)c(=O)[nH]c1=O | Ki (Ribonuclease pancreatic [5]): 66.7 µM
